The text below walks through data of patent publication US20250352562A1, “PREVENTION OF SYMPATHETIC DENERVATION OF THE PINEAL GLAND IN CARDIAC DISEASE” (TECHNISCHE UNIVERSITÄT MÜNCHEN, priority 2022, published 2025).

For experiment [1], the system named is C3H/HeJ mice after bilateral removal of SCG (SCGx). Nature of the experiment: Assessment of diurnal rhythm after bilateral removal of SCG (SCGx). It counts as in vivo. The note with it: 50 μg melatonin once intraperitoneally.
The test system of experiment [2] is nicotine-stimulated sympathetic neurons co-cultured with LPS-preactivated macrophages. Kind of experiment: Co-culture of sympathetic neurons and bone marrow-derived macrophages. The experiment is classed as cell-based, mouse. The note with it: CVF 20 U/ml for 90 min on LPS-preactivated macrophages; 1 μM nicotine; 48 h co-culture. As for the experimental part:
For the co-culture experiment, BMDM precursors were isolated and differentiated to macrophages as mentioned above. On day 6 of differentiation, primary neurons were isolated as described above. ˜5,000 neurons were seeded on separate wells of a 96-well Ibidi plate precoated with Laminin (0.1 mg/ml). At day 7 of differentiation, macrophages were either stimulated with PBS (control) or LPS (5 ng/ml) overnight. On the following day, LPS-preactivated macrophages were either incubated with PBS (control) or Cobra Venom Factor (CVF; 20 U/ml) for 90 min at 37° C. for complement inhibition. Afterwards, macrophages were chemically detached from the Petri dishes using Accutase and seeded around neurons. ˜10,000 macrophages were added per well. Co-culture medium was a mixture of neuronal and macrophage medium. Furthermore, part of the co-culture medium was supplemented with 1 μM Nicotine for artificial neuronal stimulation. 4 wells were cultivated per condition. One well per condition was transferred into the EVOS M7000 for live cell imaging (timelapse). […]
After 48 hours of co-culture (at 37° C. and 5% CO2), cells were fixated using 4% Paraformaldehyde. […] For quantification, two tilescans (2×2) per well were acquired using a 63× objective of a confocal microscope (Leica TCS SP5 II) and quantified for neuronal cell number and axonal dimensions using Imaris (Bitplane, version 9.5). […]

Entries after “also recorded” stand apart in the source; their conditions may differ.

As to `COc1ccc2[nH]cc(CCNC(C)=O)c2c1` [melatonin], the “diurnal rhythmicity (activity, ratio between dark and light)” value in experiment [1] was “completely restored; also recorded: rescued”.
With Cobra venom factor, in experiment [2], the “neurite outgrowth (axon length, branching points)” value is on record as “rescued” and the “neuronal cell loss (neuronal cell number per field of view)” value was “effectively prevented”.
